Experimental data reported in patent publication US11390621B2, “Chiral indole compounds and their use” (ARIAGEN, INC., priority 2019, dated 2022).

Experiments:
[1] = molecular target: T1, AhR (Homo sapiens, UniProt P35869); experiment: EROD assay (7-ethoxy-resorufin-O-deethylase; CYP1A1 activity) in human HepG2 cells; format: cell-based; details: for EC90: HepG2, human HepG2 cells; for EC90 / EC50: Plate 2
T1 construct: host or cells: human HepG2 cells
T1 sequence (P35869 11-848): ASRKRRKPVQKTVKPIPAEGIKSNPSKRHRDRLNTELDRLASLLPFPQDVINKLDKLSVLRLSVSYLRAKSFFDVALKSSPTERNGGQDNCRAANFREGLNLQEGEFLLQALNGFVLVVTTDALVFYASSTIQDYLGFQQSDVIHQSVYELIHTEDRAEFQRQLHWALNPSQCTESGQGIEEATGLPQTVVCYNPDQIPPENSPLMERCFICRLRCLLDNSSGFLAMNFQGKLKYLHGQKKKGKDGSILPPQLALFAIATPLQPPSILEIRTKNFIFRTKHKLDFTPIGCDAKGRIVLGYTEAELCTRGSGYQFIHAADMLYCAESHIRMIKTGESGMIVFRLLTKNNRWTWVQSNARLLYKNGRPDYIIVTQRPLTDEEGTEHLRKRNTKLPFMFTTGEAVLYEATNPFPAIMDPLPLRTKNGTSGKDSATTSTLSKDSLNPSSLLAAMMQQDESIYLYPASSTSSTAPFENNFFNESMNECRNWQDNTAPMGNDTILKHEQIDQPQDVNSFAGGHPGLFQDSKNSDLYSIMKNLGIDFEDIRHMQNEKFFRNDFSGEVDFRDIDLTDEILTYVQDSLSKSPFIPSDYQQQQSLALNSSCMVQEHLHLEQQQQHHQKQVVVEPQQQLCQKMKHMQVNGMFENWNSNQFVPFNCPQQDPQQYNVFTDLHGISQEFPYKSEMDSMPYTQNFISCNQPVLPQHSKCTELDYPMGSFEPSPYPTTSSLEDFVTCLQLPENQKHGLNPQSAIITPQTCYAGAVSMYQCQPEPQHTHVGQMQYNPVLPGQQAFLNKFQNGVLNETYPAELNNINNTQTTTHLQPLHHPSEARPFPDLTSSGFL
Procedure: CYP1A1 induction is under the control of the AhR signaling pathway. This Example describes an in vitro assay (7-ethoxy-resorufin-O-deethylase (EROD) assay) that evaluated the AhR modulating activities of the indole compounds described herein. In this assay, the indole compounds were incubated with human HepG2 cells or mouse Hepa1-6 cells. The activity of CYP1A1 in the cells was measured by the conversion of substrate 7-ethoxyresorufin, with the readout being a fluorescence signal associated with the conversion product. The EC50 values of the indole compounds as well as the maximum luminescence induced by them in the assay were determined.
Human HepG2 cells were obtained from Sigma Aldrich (Catalog 85011430-1VL).
Human HepG2 cells were grown to 60-80% confluency in tissue culture flasks, lifted with non-enzymatic cell dissociation solution (cell stripper), seeded in a 384-well plate at 5,000 cells per well, treated with the test compounds, and incubated for 20 hours overnight at 37° C. The treatment medium was removed and a solution of substrate 7-ethoxyresorufin (ETX) was added to initiate the reaction. The plate was incubated at 37° C. for 30 minutes. The reaction was subsequently terminated by adding tempered methanol. Fluorescent emission was measured at 590 nm with excitation at 530 nm in a FLEXSTATION III instrument (Molecular Devices).

[2] = Hepatocyte intrinsic clearance assay (metabolic stability), human hepatocytes; format: in vitro ADME; details: male, human, cryopreserved pooled hepatocytes, Human Hepatocytes, 1 μM test compound
How it was run: (§1)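 Cryopreserved pooled hepatocytes (1×10^6 cells/mL final) incubated with 1 μM compound at 37 °C, 5% CO2; samples at 0–120 min quenched in acetonitrile, analysed by LC-MS in duplicate. t1/2 and CLint from ln(% remaining) vs time slope; CLH via well-stirred liver model (fu=1) and EH derived from it.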

[3] = test system: human hepatocytes; experiment: as above; format: in vitro ADME; details: Human Hepatocytes; well stirred liver model, fu=1
How it was run: as §1

[4] = CYP profiling: turnover in human liver microsomes, 30 min, no inhibitor; format: in vitro ADME; design: % Compound Metabolized at 30 min, No Inhibitor: concentration or dose not given beside the values; details: HLMs
Procedure: In order to investigate the contributions of CYP1A2 and CYP3A4 to the metabolism of the compounds of the present disclosure, human liver microsomes were incubated with the test compounds for 30 minutes in the presence of selective chemical inhibitors furafylline (1A2) and ketoconazole (3A4).

Row | SMILES | EC90 [1] | fold more potent than ARI-164 by EC50 ([1]; human HepG2 cells) | fold more potent than ARI-164 by EC90 ([1]; human HepG2 cells) | EC50 ([1]; human HepG2 cells) | half-life at 1 μM [2] | hepatocyte CLint at 1 μM [2] | EH (hepatic extraction ratio) [3] | % Compound Metabolized at 30 min, No Inhibitor [4] | metabolic turnover (in words) [4]
1 | CC(C)(N)c1csc(C(=O)c2c[nH]c3cc(F)ccc23)n1 [ARI-226, (4-(2-aminopropan-2-yl)thiazol-2-yl)(6-fluoro-1H-indol-3-yl)methanone] | 0.033 µM | 4.2 × | 4.2 × | 0.0246 µM | 3 h | 3.85 µL/min/1e6 cells | 15.8% | 6% | low turnover
2 | N[C@H](c1csc(C(=O)c2c[nH]c3ccccc23)n1)C(F)(F)F [ARI-228] | 0.217 µM |  |  | 0.0656 µM | 0.2 h | 64.4 µL/min/1e6 cells | 27.6% | 89% | high turnover
3 | N[C@@H](c1csc(C(=O)c2c[nH]c3ccccc23)n1)C(F)(F)F [ARI-229] | 0.204 µM |  |  | 0.0503 µM | 2.3 h | 5.03 µL/min/1e6 cells | 11.4% | 0% | 
